{"source": "ChEMBL document CHEMBL4602703", "about": "“Lead Optimization of a Pyrrole-Based Dihydroorotate Dehydrogenase Inhibitor Series for the Treatment of Malaria” (J Med Chem, 2020)", "key": {"[1]": {"assay": "Cmax in Swiss mouse blood at 50 mg/kg, po via gavage measured up to 24 hrs by UPLC-MS analysis", "format": "ADME, organism-based", "set-up": "dose 50 mg/kg, route oral", "settings": "in vivo; call rule not given here"}, "CYP3A4/5 [2]": {"molecular_target": "T1, CYP3A4/5 (Homo sapiens, UniProt P08684+P20815)", "assay": "in vitro", "settings": "liver microsomes, probe midazolam"}, "[3]": {"assay": "AUC (0 to infinity) in Swiss mouse at 50 mg/kg, po via gavage measured up to 24 hrs by UPLC-MS analysis", "format": "ADME, organism-based", "set-up": "dose 50 mg/kg, route oral, time infinity", "settings": "in vivo"}, "[4]": {"assay": "Volume of drug distribution at steady state in Swiss mouse at […], iv administered as bolus dose measured up to 24 hrs by UPLC-MS analysis", "format": "ADME, organism-based", "settings": "in vivo"}, "[5]": {"assay": "Cmax in Swiss mouse at 18.3 mg/kg, po via gavage measured up to 24 hrs by UPLC-MS analysis", "format": "ADME, organism-based", "set-up": "dose 18.3 mg/kg, route oral", "settings": "in vivo"}, "[6]": {"assay": "Protein binding in mouse plasma by LC-MS analysis based ultracentrifugation assay", "format": "ADME, cell-free", "settings": "read-out: PPB (converted)"}, "[7]": {"assay": "AUC (0 to infinity) in Swiss mouse blood at 18.3 mg/kg, po via gavage measured up to 24 hrs by UPLC-MS analysis", "format": "ADME, organism-based", "set-up": "dose 18.3 mg/kg, route oral, time infinity", "settings": "in vivo"}, "[8]": {"assay": "AUC (0 to infinity) in Swiss mouse at 18.3 mg/kg, po via gavage measured up to 24 hrs by UPLC-MS analysis", "format": "ADME, organism-based", "set-up": "dose 18.3 mg/kg, time infinity, route oral", "settings": "in vivo"}, "Albumin": {"molecular_target": "Albumin (Homo sapiens, UniProt P02768)", "sequence (P02768 whole entry)": "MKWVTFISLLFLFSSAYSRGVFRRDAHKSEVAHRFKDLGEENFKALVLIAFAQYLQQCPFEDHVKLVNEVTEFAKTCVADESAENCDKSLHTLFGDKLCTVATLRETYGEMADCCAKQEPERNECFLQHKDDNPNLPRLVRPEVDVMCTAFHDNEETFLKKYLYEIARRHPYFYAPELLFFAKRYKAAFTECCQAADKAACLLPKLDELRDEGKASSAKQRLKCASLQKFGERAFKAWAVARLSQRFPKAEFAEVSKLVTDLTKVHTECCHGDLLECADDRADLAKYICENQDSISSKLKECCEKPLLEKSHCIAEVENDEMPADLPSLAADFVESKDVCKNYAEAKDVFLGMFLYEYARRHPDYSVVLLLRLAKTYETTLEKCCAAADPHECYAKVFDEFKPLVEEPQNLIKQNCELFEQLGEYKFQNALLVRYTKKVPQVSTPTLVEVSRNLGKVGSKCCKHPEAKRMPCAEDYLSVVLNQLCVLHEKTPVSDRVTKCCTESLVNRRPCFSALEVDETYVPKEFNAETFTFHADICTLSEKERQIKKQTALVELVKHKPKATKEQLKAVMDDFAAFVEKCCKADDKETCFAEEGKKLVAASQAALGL", "assay": "Binding affinity to albumin (unknown origin) in ALBUMAX medium", "format": "ADME", "settings": "read-out: PB (converted)"}, "[9]": {"assay": "Intrinsic clearance in human liver microsomes assessed as per mg protein", "format": "ADME, Microsome"}, "[10]": {"assay": "Volume of distribution at steady state in Sprague-Dawley rat at […], iv administered as infusion for 10 mins and measured up to 24 hrs by LC-MS analysis", "format": "ADME, organism-based", "settings": "in vivo, read-out: Vdss"}, "Cytochrome P450 1A2": {"molecular_target": "T2, Cytochrome P450 1A2 (Homo sapiens, UniProt P05177)", "T2 sequence (P05177 whole entry)": "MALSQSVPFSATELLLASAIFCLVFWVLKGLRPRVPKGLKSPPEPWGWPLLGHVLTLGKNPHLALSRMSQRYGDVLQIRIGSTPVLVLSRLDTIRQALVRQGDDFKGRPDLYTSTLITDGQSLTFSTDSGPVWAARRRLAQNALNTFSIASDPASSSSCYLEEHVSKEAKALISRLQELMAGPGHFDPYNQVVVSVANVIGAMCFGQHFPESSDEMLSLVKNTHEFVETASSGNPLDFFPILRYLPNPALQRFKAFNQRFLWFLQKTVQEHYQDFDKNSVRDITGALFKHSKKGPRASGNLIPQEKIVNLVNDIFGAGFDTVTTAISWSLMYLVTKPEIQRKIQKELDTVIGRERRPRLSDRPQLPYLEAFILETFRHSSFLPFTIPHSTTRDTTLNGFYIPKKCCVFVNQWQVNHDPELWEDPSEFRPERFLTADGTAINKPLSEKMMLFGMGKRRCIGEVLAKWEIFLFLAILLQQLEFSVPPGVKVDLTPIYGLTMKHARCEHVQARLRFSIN", "assay": "Inhibition of CYP1A2 in human liver microsomes using phenacetin as substrate measured for 10 to 30 mins in presence of NADPH regenerating system by UPLC-MS analysis", "format": "ADME"}, "[11]": {"assay": "Oral bioavailability in Sprague-Dawley rat at 33 mg/kg administered via gavage measured up to 24 hrs by LC-MS analysis", "format": "ADME, organism-based", "settings": "in vivo"}, "[12]": {"assay": "AUC (0 to infinity) in Swiss mouse at […], iv administered as bolus dose measured up to 24 hrs by UPLC-MS analysis", "format": "ADME, organism-based", "set-up": "dose 2.8 mg/kg, route intravenous, time infinity", "settings": "in vivo"}, "[13]": {"assay": "Cmax in Sprague-Dawley rat at 3 mg/kg, po administered via gavage measured up to 24 hrs by LC-MS analysis", "format": "ADME, organism-based", "set-up": "dose 3 mg/kg, route oral", "settings": "in vivo"}, "[14]": {"assay": "Cmax in Swiss mouse at 10.5 mg/kg, po via gavage measured up to 24 hrs by UPLC-MS analysis", "format": "ADME, organism-based", "set-up": "dose 10.5 mg/kg, route oral", "settings": "in vivo"}, "[15]": {"settings": "simulated gi fluid, pH 6.5"}, "[16]": {"assay": "Protein binding in rat plasma by LC-MS analysis based ultracentrifugation assay", "format": "ADME, cell-free", "settings": "read-out: PPB (converted)"}, "[17]": {"assay": "Oral bioavailability in Sprague-Dawley rat at 3 mg/kg administered via gavage measured up to 24 hrs by LC-MS analysis", "format": "ADME, organism-based", "settings": "in vivo"}, "CYP3A4/5 [18]": {"molecular_target": "T1, CYP3A4/5", "assay": "in vitro", "settings": "liver microsomes, probe midazolam", "remark": "listed apart in the source"}, "[19]": {"assay": "fAUC in Plasmodium falciparum 3D70087/N9 infected po dosed NOD-SCID IL2Rgamma null mouse blood administered once daily for 4 days", "format": "ADME, organism-based", "settings": "in vivo, 96 h"}, "[20]": {"assay": "Cmax in NOD-SCID IL2Rgamma null mouse blood infected with Plasmodium falciparum 3D70087/N9 at 50 mg/kg, po qd for 4 days starting from 3 days post infection and measured after 24 hrs post dose by LC-MS/MS analysis"}, "Plasmodium falciparum": {"tested_on": "Plasmodium falciparum", "format": "functional, organism-based", "settings": "R10C1B, 72 h"}, "[21]": {"assay": "Apparent half life in Swiss mouse at […], iv administered as bolus dose measured up to 24 hrs by UPLC-MS analysis", "format": "ADME, organism-based", "settings": "in vivo"}, "[22]": {"settings": "buffer, pH 7.4"}, "[23]": {"assay": "Oral bioavailability in Swiss mouse at 50 mg/kg dosed via gavage measured up to 24 hrs by UPLC-MS analysis", "format": "ADME, organism-based", "settings": "in vivo"}, "[24]": {"assay": "Toxicity in Plasmodium falciparum 3D70087/N9 infected NOD-SCID IL2Rgamma null mouse assessed as death at 10 mg/kg, po administered once daily for 4 days measured 24 hrs post dose", "format": "organism-based", "settings": "in vivo"}, "CYP3A4/5 [25]": {"molecular_target": "T1, CYP3A4/5", "assay": "in vitro", "settings": "liver microsomes, probe testosterone"}, "[26]": {"assay": "Apparent half life in Sprague-Dawley rat at 33 mg/kg, po administered via gavage measured up to 24 hrs by LC-MS analysis", "format": "ADME, organism-based", "settings": "in vivo"}, "[27]": {"assay": "Intrinsic clearance in liver microsomes assessed as per mg protein", "settings": "read-out: CLH"}, "[28]": {"assay": "Clearance in Sprague-Dawley rat plasma at […], iv administered as infusion for 10 mins and measured up to 24 hrs by LC-MS analysis", "format": "ADME, organism-based", "settings": "in vivo"}, "[29]": {"assay": "Protein binding in human liver microsomes by LC-MS analysis based ultracentrifugation assay", "format": "ADME, Microsome", "settings": "read-out: PB (converted)"}, "[30]": {"assay": "AUC (0 to infinity) in Sprague-Dawley rat at 33 mg/kg, po administered via gavage measured up to 24 hrs by LC-MS analysis", "format": "ADME, organism-based", "set-up": "dose 33 mg/kg, time infinity, route oral", "settings": "in vivo"}, "[31]": {"assay": "Cmax in Swiss mouse at 50 mg/kg, po via gavage measured up to 24 hrs by UPLC-MS analysis", "format": "ADME, organism-based", "set-up": "dose 50 mg/kg, route oral", "settings": "in vivo"}, "Cytochrome P450 2C9": {"molecular_target": "Cytochrome P450 2C9 (Homo sapiens, UniProt P11712)", "sequence (P11712 whole entry)": "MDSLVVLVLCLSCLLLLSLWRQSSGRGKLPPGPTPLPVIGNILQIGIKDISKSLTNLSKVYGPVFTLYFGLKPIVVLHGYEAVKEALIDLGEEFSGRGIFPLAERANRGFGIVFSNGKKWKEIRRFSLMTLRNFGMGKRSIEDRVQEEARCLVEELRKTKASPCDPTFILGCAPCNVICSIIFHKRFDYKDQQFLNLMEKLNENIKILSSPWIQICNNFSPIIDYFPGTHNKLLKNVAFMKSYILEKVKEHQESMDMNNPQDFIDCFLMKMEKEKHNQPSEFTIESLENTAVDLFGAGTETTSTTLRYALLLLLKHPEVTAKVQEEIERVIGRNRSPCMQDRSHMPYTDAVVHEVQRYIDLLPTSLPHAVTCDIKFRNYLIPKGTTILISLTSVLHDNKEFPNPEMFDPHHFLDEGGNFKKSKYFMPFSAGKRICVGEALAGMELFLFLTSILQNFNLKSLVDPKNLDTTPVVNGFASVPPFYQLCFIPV", "assay": "Time-dependent inhibition of CYP2C9 in human liver microsomes using tolbutamide as substrate in absence of NADPH regenerating system by UPLC-MS analysis", "format": "ADME"}, "[32]": {"assay": "Apparent half life in Sprague-Dawley rat at […], iv administered as infusion for 10 mins and measured up to 24 hrs by LC-MS analysis", "format": "ADME, organism-based", "settings": "in vivo, read-out: t1/2(app) (converted)"}}, "data": [{"smiles": "Cc1c(Cc2ccc(C(F)(F)F)nc2)c[nH]c1C(=O)NC1CC1", "values": [{"measurement": "Cmax", "setting": "[1]", "value": 33.8, "unit": "µM"}, {"measurement": "IC50", "setting": "CYP3A4/5 [2]", "value": "> 20", "unit": "µM"}, {"measurement": "AUC", "setting": "[3]", "value": 220, "unit": "µM·h"}, {"measurement": "Vdss", "setting": "[4]", "value": 1.2, "unit": "L/kg"}, {"measurement": "Cmax", "setting": "[5]", "value": 8.4, "unit": "µM"}, {"measurement": "fraction unbound", "setting": "[6]", "value": 0.111}, {"measurement": "AUC", "setting": "[7]", "value": 44.5, "unit": "µM·h"}, {"measurement": "AUC", "setting": "[8]", "value": 55.6, "unit": "µM·h"}, {"measurement": "fraction unbound", "setting": "Albumin", "value": 0.482}, {"measurement": "microsomal CLint", "setting": "[9]", "value": 10, "unit": "µL/min/mg"}, {"measurement": "Vd", "setting": "[10]", "value": 4.7, "unit": "L/kg"}, {"measurement": "IC50", "setting": "Cytochrome P450 1A2", "value": "> 20", "unit": "µM"}, {"measurement": "F", "setting": "[11]", "value": "> 100", "unit": "%"}, {"measurement": "AUC", "setting": "[12]", "value": 5.6, "unit": "µM·h"}, {"measurement": "Cmax", "setting": "[13]", "value": 1.7, "unit": "µM"}, {"measurement": "Cmax", "setting": "[14]", "value": 4.6, "unit": "µM"}, {"measurement": "solubility", "setting": "[15]", "value": 60.1, "unit": "µg/mL"}, {"measurement": "fraction unbound", "setting": "[16]", "value": 0.118}, {"measurement": "F", "setting": "[17]", "value": 91, "unit": "%"}, {"measurement": "IC50", "setting": "CYP3A4/5 [18]", "value": 5.5, "unit": "µM"}, {"measurement": "fAUC", "setting": "[19]", "value": 1100, "unit": "ng·h/mL"}, {"measurement": "Cmax", "setting": "[20]", "value": 7.81, "unit": "µM"}, {"measurement": "EC50", "setting": "Plasmodium falciparum", "value": 0.024, "unit": "µM"}, {"measurement": "t1/2(app)", "setting": "[21]", "value": 2.8, "unit": "h"}, {"measurement": "solubility", "setting": "[22]", "value": 45.6, "unit": "µg/mL"}, {"measurement": "F", "setting": "[23]", "value": "> 100", "unit": "%"}, {"measurement": "Activity", "setting": "[24]", "value": "Toxic"}, {"measurement": "IC50", "setting": "CYP3A4/5 [25]", "value": 5.5, "unit": "µM"}, {"measurement": "t1/2(app)", "setting": "[26]", "value": 2.8, "unit": "h"}, {"measurement": "microsomal CLint", "setting": "[27]", "value": 24, "unit": "µL/min/mg"}, {"measurement": "clearance", "setting": "[28]", "value": 28.6, "unit": "mL/min/kg"}, {"measurement": "fraction unbound", "setting": "[29]", "value": 0.701}, {"measurement": "AUC", "setting": "[30]", "value": 204, "unit": "µM·h"}, {"measurement": "Cmax", "setting": "[31]", "value": 42.3, "unit": "µM"}, {"measurement": "TDI", "setting": "Cytochrome P450 2C9", "value": "Not Active"}, {"measurement": "half-life", "setting": "[32]", "value": 14.6, "unit": "h"}]}]}
